How the values were obtained:
[1] = tested on: SAH rats; test: Long-term survival rate of SAH rats; format: in vivo, rat; conditions: for Survival rate / 24-hour mortality rate: 2 hours after modeling then once a day for 14 days
Procedure: The experimental materials, grouping and modeling methods were the same as those in effect embodiment 1. The rats were immediately administrated 2 hours after SAH modeling according to the grouping administration protocol and continued to be administrated once a day for 14 days thereafter, and the survival of the rats was observed and recorded for 14 days. The mortality rate within 24 hours in group S was as high as 53.8%.

[2] = tested on: PC12 cells; test: Oxyhemoglobin-damaged PC12 cells, MTT; format: cell-based; conditions: α-asarone emulsion 1, 5, 10, 25, 50 μM pre-incubated 2 hours, 6 μM oxyhemoglobin 24 hours
Procedure: PC12 cells in the logarithmic phase of growth were seeded in a 96-well plate (1×10^4 cells/100 μL/well) with the marginal wells filled with sterile PBS, and cultured with complete culture medium at 37° C. with 5% CO2 for 24 hours until the cells completely adhered to the wall. The supernatant was discarded followed by oxyhemoglobin incubation at 37° C. with 5% CO2 for 24 hours with final concentrations of 0 μM, 4 μM, 6 μM, 8 μM and 10 μM, respectively. Subsequently, 10 μL MTT (5 mg/mL) was added into each well and incubated at 37° C. with 5% CO2 for 4 hours. Then, the supernatant was discarded, the formazan was dissolved with 100 μL DMSO, and the optical density (OD) was gauged at 570 nm by a microplate reader after incubation at 37° C. for 15 minutes (500 r/min) to calculate the cell viability. According to the formula “fold of cell abnormal proliferation=[(average absorbance value of the experimental group−average absorbance value of zero-adjusting well)/(average absorbance value of the control group−average absorbance value of zero-adjusting well)”, 6 μM oxyhemoglobin was screened out for following in vitro pharmacodynamic experiment since it produced a maximum of 1.5-fold abnormal cell proliferation compared to the control group. […]

[3] = tested on: SAH rats; test: Brain water content and blood-brain barrier permeability (Evans blue), SAH rats; format: in vivo, rat; conditions: 24 hours after operation, group M, medium-dose intravenous, vs model group
Procedure: After completing the evaluation of 24-hour short-term neurological function, 4% Evans blue solution (2.5 mL/kg) was injected into the right caudal vein of the rats. After circulated for 1 hour, the rats were deeply anesthetized and transcardinally perfused with 100 mL of normal saline to collect the rats' brain. The whole brain was divided into four groups: left hemisphere (LH), right hemisphere (RH), cerebellum (Cb) and brainstem (BS). The left and right hemispheres were coronally divided into two parts, one part was immediately weighed (wet weight) with a balance with an accuracy of 0.1 mg, dried in an oven at 105° C. for 24 hours and weighed again (dry weight). The brain water content was calculated as [(wet weight−dry weight)/wet weight]×100%. The other part of the brain tissue was weighed (wet weight) and emerged into 10 times the volume of pure formamide, incubated at 60° C. for 48 hours, centrifuged at 25° C. for 30 min (10,000 rpm/min). The Evans blue in the supernatant was measured at 622 nm by a UV spectrophotometry, and calculated with a standard curve for quantification. The amount of Evans blue was expressed as μg/g of brain tissue (wet weight).

With `C/C=C/c1cc(OC)c(OC)cc1OC` [α-asarone, trans-2,4,5-trimethoxy-1-propenylbenzene] the “survival time (vs group S)” value ([1]; 14 days, groups M, H, O and N) was “prolonged”, the Survival rate ([1]; Day 14, group H, α-asarone emulsion injection 30 mg/kg tail vein) was 55.6% and the Survival rate ([1]; Day 14, group L, α-asarone emulsion injection 7.5 mg/kg tail vein) was 37.5%. It also gave a Survival rate ([1]; Day 14, group M, α-asarone emulsion injection 15 mg/kg tail vein) of 61.5%, a Survival rate ([1]; Day 14, group O, α-asarone emulsion oral administration 40 mg/kg) of 62.5% and a 24-hour mortality rate ([1]; group H, α-asarone emulsion injection 30 mg/kg tail vein) of 22.2%. It also gave a 24-hour mortality rate ([1]; group L, α-asarone emulsion injection 7.5 mg/kg tail vein) of 50.0%, a 24-hour mortality rate ([1]; group M, α-asarone emulsion injection 15 mg/kg tail vein) of 23.1% and a 24-hour mortality rate ([1]; group O, α-asarone emulsion oral administration 40 mg/kg) of 25.0%. For the same molecule, the “mortality rate within 24 hours (vs group S)” value ([1]; groups M, H, O and N) was “significantly reduced”, the “abnormal increase of cell vitality caused by oxyhemoglobin” value [2] was “significantly reduced” and the Evans blue content [3] was “significantly reduce”. For the same molecule, the brain water content [3] was “significantly reduce”.

Reference: US12636260B2, “Application of α-asarone in preparation of medicine for preventing or treating hemorrhagic stroke” (CHENGDU XINRUI TAIKANG TECHNOLOGY CO., LTD., priority 2021, dated 2026)
